How the values were obtained:
[1] = tested on: glucose-6-phosphate dehydrogenase in human fibroblasts; assay: G6PDH activity in human fibroblasts (in vitro determination of the enzymatic activity); assay type: cell-based; settings: control = 100; for G6PDH activity after 3 days: 3 days incubation
Method: The G6PDH activity was determined in accordance with the microprocess described by Garidelli de Quincenet in Annual Dermatol. Venereol. 107(12), 1163-1170 (1980). The G6PDH activity was determined in accordance with the process described by Natsuko Okada and Yukio Kitano in: Arch. Dermatol. Res., 271(3): 341-346, 1981 by in vitro determination of the enzymatic activity of the glucose-6-phosphate dehydrogenase in human fibroblasts.
(§1) The DNA content was determined in accordance with the method described by Desaulniers in Toxic. In vitro 12(4), 409-422 (1998). The incubation time of the fibroblasts was in each case 3 days and 6 days. In each case, the average of 4 experiments with triple determination is given.

[2] = tested on: human fibroblasts; assay: DNA content of the fibroblasts; assay type: cell-based; settings: control = 100; for DNA content after 3 days: 3 days incubation
Method: as §1

[3] = conc. 0.00003 % by wt., 6 days incubation

| SMILES | G6PDH activity after 3 days ([1]; conc. 0.005 % by wt.) | DNA content after 3 days ([2]; conc. 0.005 % by wt.) | G6PDH activity after 3 days ([1]; conc. 0.00003 % by wt.) | G6PDH activity after 6 days [1, 3] | DNA content after 3 days ([2]; conc. 0.00003 % by wt.) | DNA content after 6 days [2, 3] |
| --- | --- | --- | --- | --- | --- | --- |
| COc1cc2c(cc1O)C[C@H]1c3c(cc(O)c(OC)c3-2)CCN1C [Boldin index B3916 (Sigma), Boldin] | 200 rel-% | 97 rel-% | – | – | – | – |
| CC1=C(/C=C/C(C)=C/C=C/C(C)=C/C(=O)O)C(C)(C)CCC1 [Retinoic acid] | – | – | 134 rel-% | 130 rel-% | 76 rel-% | 98 rel-% |
| CC1=C(/C=C/C(C)=C/C=C/C(C)=C/CO)C(C)(C)CCC1 [Retinol] | 400 rel-% | 95 rel-% | – | – | – | – |

Source: patent publication US20030175366A1, “Plant Extracts and Methods of Treating Skin Therewith” (priority 2000, published 2003)
